Columns and labels:
[1] = molecular target: T1, human M4 receptor (Homo sapiens, UniProt P08173); experiment: cAMP assay for M4 positive allosteric modulators (M4 PAM cAMP assay); assay type: cell-based; parameters: expressed in transfected cells; host or cells: CHO-K1; conditions: Table 1; CHO-K1 cells expressing human M4; forskolin 7.5 μM + acetylcholine EC20 (0.2 nM)
T1 sequence (P08173 1-479): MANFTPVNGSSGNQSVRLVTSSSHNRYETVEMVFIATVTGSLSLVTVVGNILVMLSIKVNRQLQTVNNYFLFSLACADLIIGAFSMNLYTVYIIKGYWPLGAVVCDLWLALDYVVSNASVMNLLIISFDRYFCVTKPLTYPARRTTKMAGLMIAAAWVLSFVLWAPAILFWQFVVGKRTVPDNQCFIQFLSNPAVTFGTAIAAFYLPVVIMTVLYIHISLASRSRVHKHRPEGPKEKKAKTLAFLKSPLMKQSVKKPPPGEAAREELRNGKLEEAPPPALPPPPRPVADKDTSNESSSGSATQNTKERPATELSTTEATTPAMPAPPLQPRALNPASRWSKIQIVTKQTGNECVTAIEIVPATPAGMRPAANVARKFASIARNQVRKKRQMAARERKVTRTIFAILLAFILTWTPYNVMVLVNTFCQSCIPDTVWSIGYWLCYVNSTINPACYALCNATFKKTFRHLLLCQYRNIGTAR
Experimental: The potency of M4 PAMs was determined using a cell-based cyclic adenosine monophosphate assay. The assay was performed with CHO-Kl cells stably expressing untagged human M4 receptor and cAMP was quantified using the Nano-TRF Detection Assay kit (Roche, Cat. No. 05214386) as described in the kit instructions. The cells were grown in Ham's F-12 Nutrient mix supplemented with 10% FBS and 200 μg/ml geneticin until they reached 80% confluency. The cells were washed with PBS, detached with accutase and resuspended in assay buffer consisting of HBSS and 0.1% BSA. They were then seeded in black 384-well plates (Corning, Cat. No. 3764) at a density of 20,000 cells/20 μl per well until the addition of compounds.
Test compounds were serially diluted 1:2 in 100% DMSO and spotted in 384-well plates at 0.5 μl/well. The compounds were then diluted in water containing IBMX (Sigma, Cat. No. 17018) and a sample (5 μl) was added to the cells for 15 minutes at 37° C./5% CO2. After this incubation the cells were stimulated with a combination of forskolin (7.5 μM) and acetylcholine EC20 (0.2 nM) in assay buffer for 30 minutes at 37° C./5% CO2. The assay was stopped by adding cAMP detection mix (15 μl/well, containing detergents for cell lysis) for one hour at RT.
The test plates were read using a SpectraMax i3x reader (Molecular Devices). The exported raw data was used to calculate the FRET signal based on the P-factor as per cAMP kit instructions. The data was normalized to the activity of acetylcholine plus forskolin, with 2 nM of acetylcholine plus 7.5 μM forskolin defined as 100% activity. Dose response curves were fitted to the percent activity data of the compounds using a sigmoidal dose response model (XLfit, IDBS) and the data were reported as EC50 and percent efficacy.

[2] = molecular target: T1, human M4 receptor; experiment: Calcium flux assay using fluorescent imaging (M4 PAM FLIPR assay); assay type: cell-based; parameters: expressed in transfected cells; host or cells: CHO (monoclonal line, clone 2); conditions: Table 1; CHO cells expressing human M4+Gqi5; acetylcholine EC20
Experimental: CHO cells were transfected with expression plasmid encoding the human M4 receptor and a Gqi5 construct to redirect Gi signaling to calcium. Stable cells were cloned by limiting dilution to yield a monoclonal cell line expressing human M4+Gqi5 (clone 2). The stable cells were grown in DMEM containing 10% FBS, 200 ug/ml Geneticin and 800 ug/ml Hygromycin at 37° C. in a 10% CO2 incubator at 95% humidity.
Calcium Flux Assay Using Fluorescent Imaging (“M4 PAM FLIPR” Assay)
On the afternoon before the assay, cells were plated at a density of 50,000 cells/well into black 96 well plates with clear bottoms to yield a confluent monolayer the next day. Hanks balanced salt solution, without phenol red, containing 20 mM HEPES (pH 7.3) and 2.5 mM probenecid (assay buffer) was prepared fresh for each experiment. Compound dilutions were made using a Beckman Biomek 2000 laboratory automation workstation, in assay buffer. The dye-loading buffer consisted of a final concentration of 2 μM Fluo-4-AM (dissolved in DMSO and pluronic acid) and 65 μg/ml amidoblack in assay buffer. The existing culture media was removed from the wells and 100 μl of the dye-loading buffer was added to each well and incubated for approximately 90 min at 37° C. in a 5% CO2 incubator at 95% humidity.
Calcium flux in the dye-loaded cells was measured with the fluorescence reader Hamamatsu FDSS 7000. To test compounds as agonists, compound addition (25 μl) was made 10 s into the fluorescent measurements and fluorescent response was recorded for 3 minutes. The fluorescence data was expressed as percentage of the fluorescence obtained by an EC100 concentration (3 μM) of the endogenous full agonist acetylcholine. Each test compound concentration-response curve was constructed using a four parameter logistic equation in Microsoft Excel XLFit as follows:
Y=Minimum+((Maximum−Minimum)/(1+10^(LogEC50−X)nH)).
The concentration of agonist that produced a half-maximal response is represented by the EC50 value. Maximum and minimum are the maximum and minimum fluorescence signal in % respectively. nH is the Hill slope.
To measure positive allosteric modulator activity 25 μl of an EC20 concentration of the endogenous agonist acetylcholine is added to the cells already pre-incubated with the test compound for 15 minutes.
The M4 PAM dose response is constructed using the agonist dose-response equation above. The concentration of PAM that produced a half-maximal response is represented by the EC50 value and the maximum signal measured is the PAM efficacy expressed in % of the EC100 (3 μM) acetylcholine response. • cAMP Assay for M4 Positive Allosteric Modulators (“M4 PAM cAMP” Assay)

Structure (SMILES) | EC50 [1] [nM] | EC50 [2] [nM]
Cc1nc2c(c(C)c1Cl)CN(C(=O)[C@@H]1CCN(c3cccnn3)C1)C2 [Example 39, (3-chloro-2,4-dimethyl-5,7-dihydropyrrolo[3,4-b]pyridin-6-yl)-[(3R)-1-pyridazin-3-ylpyrrolidin-3-yl]methanone] | 2200 | 2520
Cc1ccc(N2CC[C@@H](C(=O)N3Cc4nc(C)c(Cl)c(C)c4C3)C2)nn1 [Example 40, (3-chloro-2,4-dimethyl-5,7-dihydropyrrolo[3,4-b]pyridin-6-yl)-[(3R)-1-(6-methylpyridazin-3-yl)pyrrolidin-3-yl]methanone] | 1990 | 1290
Cc1nc2c(c(C)c1Cl)CN(C(=O)[C@@H]1CCN(c3ccc(C(F)(F)F)nn3)C1)C2 [Example 41, (3-chloro-2,4-dimethyl-5,7-dihydropyrrolo[3,4-b]pyridin-6-yl)-[(3R)-1-[6-(trifluoromethyl)pyridazin-3-yl]pyrrolidin-3-yl]methanone] | 5120 | 2010
COc1cncc(N2CC[C@@H](C(=O)N3Cc4nc(C)c(Cl)c(C)c4C3)C2)n1 [Example 42, (3-chloro-2,4-dimethyl-5,7-dihydropyrrolo[3,4-b]pyridin-6-yl)-[(3R)-1-(6-methoxypyrazin-2-yl)pyrrolidin-3-yl]methanone] | 2080 | 577
Cc1nc2c(c(C)c1Cl)CN(C(=O)[C@@H]1CCN(c3cncc(C4CC4)n3)C1)C2 [Example 43, (3-chloro-2,4-dimethyl-5,7-dihydropyrrolo[3,4-b]pyridin-6-yl)-[(3R)-1-(6-cyclopropylpyrazin-2-yl)pyrrolidin-3-yl]methanone] | 7290 | 1210
Cc1nc2c(c(C)c1Cl)CN(C(=O)[C@@H]1CCN(c3cnc(C#N)cn3)C1)C2 [Example 44, 5-[(3R)-3-(3-chloro-2,4-dimethyl-5,7-dihydropyrrolo[3,4-b]pyridine-6-carbonyl)pyrrolidin-1-yl]pyrazine-2-carbonitrile] | 1280 | 1110
COc1cnc(N2CC[C@@H](C(=O)N3Cc4nc(C)c(Cl)c(C)c4C3)C2)cn1 [Example 45, (3-chloro-2,4-dimethyl-5,7-dihydropyrrolo[3,4-b]pyridin-6-yl)-[(3R)-1-(5-methoxypyrazin-2-yl)pyrrolidin-3-yl]methanone] | 1370 | 804
Cc1cnc(N2CC[C@@H](C(=O)N3Cc4nc(C)c(Cl)c(C)c4C3)C2)cn1 [Example 46, (3-chloro-2,4-dimethyl-5,7-dihydropyrrolo[3,4-b]pyridin-6-yl)-[(3R)-1-(5-methylpyrazin-2-yl)pyrrolidin-3-yl]methanone] | 814 | 611
Cc1nc2c(c(C)c1Cl)CN(C(=O)[C@@H]1CCN(c3cnc(C(F)(F)F)cn3)C1)C2 [Example 47, (3-chloro-2,4-dimethyl-5,7-dihydropyrrolo[3,4-b]pyridin-6-yl)-[(3R)-1-[5-(trifluoromethyl)pyrazin-2-yl]pyrrolidin-3-yl]methanone] | 1820 | 906
COc1ccnc(N2CC[C@@H](C(=O)N3Cc4nc(C)c(Cl)c(C)c4C3)C2)n1 [Example 48, (3-chloro-2,4-dimethyl-5,7-dihydropyrrolo[3,4-b]pyridin-6-yl)-[(3R)-1-(4-methoxypyrimidin-2-yl)pyrrolidin-3-yl]methanone] | 8130 | 2200
Cc1ccnc(N2CC[C@@H](C(=O)N3Cc4nc(C)c(Cl)c(C)c4C3)C2)n1 [Example 49, (3-chloro-2,4-dimethyl-5,7-dihydropyrrolo[3,4-b]pyridin-6-yl)-[(3R)-1-(4-methylpyrimidin-2-yl)pyrrolidin-3-yl]methanone] | 3350 | 1670
Cc1nc2c(c(C)c1Cl)CN(C(=O)[C@@H]1CCN(c3nccc(C(F)(F)F)n3)C1)C2 [Example 50, (3-chloro-2,4-dimethyl-5,7-dihydropyrrolo[3,4-b]pyridin-6-yl)-[(3R)-1-[4-(trifluoromethyl)pyrimidin-2-yl]pyrrolidin-3-yl]methanone] | 4380 | 1820
Cc1cncc(N2CC[C@@H](C(=O)N3Cc4nc(C)c(Cl)c(C)c4C3)C2)n1 [Example 51, (3-chloro-2,4-dimethyl-5,7-dihydropyrrolo[3,4-b]pyridin-6-yl)-[(3R)-1-(6-methylpyrazin-2-yl)pyrrolidin-3-yl]methanone] | 591 | 363
Cc1cc(N2CC[C@@H](C(=O)N3Cc4nc(C)c(Cl)c(C)c4C3)C2)cnn1 [Example 52, (3-chloro-2,4-dimethyl-5,7-dihydropyrrolo[3,4-b]pyridin-6-yl)-[(3R)-1-(6-methylpyridazin-4-yl)pyrrolidin-3-yl]methanone] | 1160 | 527
COCc1nc2c(c(C)c1Cl)CN(C(=O)[C@@H]1CCN(c3cc(C)ncn3)C1)C2 [Example 53, [3-chloro-2-(methoxymethyl)-4-methyl-5,7-dihydropyrrolo[3,4-b]pyridin-6-yl]-[(3R)-1-(6-methylpyrimidin-4-yl)pyrrolidin-3-yl]methanone] | 503 | 184
Cc1nc2c(c(C)c1Cl)CN(C(=O)[C@@H]1CCN(c3cc(C(F)F)ncn3)C1)C2 [Example 54, (3-chloro-2,4-dimethyl-5,7-dihydropyrrolo[3,4-b]pyridin-6-yl)-[(3R)-1-[6-(difluoromethyl)pyrimidin-4-yl]pyrrolidin-3-yl]methanone] | 444 | 247
COCc1nc2c(c(C)c1Cl)CN(C(=O)[C@@H]1CCN(c3cccnc3)C1)C2 [Example 56, [3-chloro-2-(methoxymethyl)-4-methyl-5,7-dihydropyrrolo[3,4-b]pyridin-6-yl]-[(3R)-1-(3-pyridyl)pyrrolidin-3-yl]methanone] | 80 | 486
COCc1nc2c(c(C)c1Cl)CN(C(=O)[C@@H]1CCN(c3ccnc(C(F)F)c3)C1)C2 [Example 57, [3-chloro-2-(methoxymethyl)-4-methyl-5,7-dihydropyrrolo[3,4-b]pyridin-6-yl]-[(3R)-1-[2-(difluoromethyl)-4-pyridyl]pyrrolidin-3-yl]methanone] | 283 | 99
